According to patent publication US11390621B2, “Chiral indole compounds and their use” (ARIAGEN, INC., priority 2019, dated 2022):
Where “and” joins values, the source holds several entries; their conditions need not be identical. Equal entries are not always repeated. Where two headings read alike, the source gives them in different places.

How the values were obtained:
[1] = Hepatocyte intrinsic clearance assay (metabolic stability), human hepatocytes; assay type: in vitro ADME; details: male, human, cryopreserved pooled hepatocytes, Human Hepatocytes, 1 μM test compound
From the text: (§1) The liver is an important organ in the body for drug metabolism. This Example describes hepatocyte intrinsic clearance assays using both human and rat hepatocytes to evaluate the metabolic stability of the indole compounds disclosed herein. The parameters measured include t1/2 (half-life), CLint (intrinsic clearance), and EH (hepatic extraction ratio).
(§2) Testosterone (Lot FE111011-01) was obtained from Cerilliant (Round Rock, Tex.). 7-hydroxycoumarin (Lot 11631ED) was obtained from Sigma Aldrich (St. Louis, Mo.). Cryopreserved human hepatocytes pooled from ten donor males (X008001), cryopreserved male IRC/CD-1 mouse hepatocytes (M005052), INVITROGRO HI Medium (incubation), and INVITROGRO HT Medium (thawing) were obtained from Bioreclamation IVT (Baltimore, Md.). All solvents were obtained from commercial sources and used without further purification.
(§3) Each test compound was prepared as a 1 mM stock solution in DMSO. A 2 μM solution of test compound and positive controls were prepared in INVITROGRO HI Medium (incubation). These solutions were pre-warmed in a sterile incubator set to maintain 37° C., 5% CO2, and 98% humidity. Cryopreserved hepatocytes were prepared at a concentration of 2×10^6 living cells/mL in incubation media and pre-warmed in the incubator. The compound solutions and hepatocyte mixtures were then combined at a ratio of 1:1 (v:v). The final volume of the reaction mixture was 750 μL, containing 1 μM test compound (10 μM for 7-hydroxycoumarin) and […]. The reaction mixture was placed in the incubator on a plate shaker. After 0, 15, 30, 60, 90, and 120 minutes of incubation, 100 μL of reaction mixtures were removed from the incubation plate and mixed with 150 μL of ice-cold acetonitrile in a designated well of a 96-well crash plate. The 96-well crash plate was placed on ice for 15 min, and samples were centrifuged (3,600 RPM, 10 min, 4° C.) to precipitate protein. The supernatants were diluted 1:1 (v:v) with water containing 0.15 μM verapamil and/or 1 μM tolbutamide (internal standards for positive and negative modes, respectively) in a 96-well shallow injection plate. This plate was sealed for LC-MS analysis. All measurements were done in duplicate.
(§4) The residual compound remaining (% R) was determined from LC-MS peak areas by comparison to the zero time point. Metabolic half-life (t1/2) and intrinsic clearance (CLint) values were calculated from the slope of the plot of ln (% R) vs. time and the concentration of hepatocytes present in the incubation. Percent remaining at 60 minutes was calculated by plugging in the 60 minute value into the slope equation generated by the percent remaining time points.
(§5) In vivo hepatic clearance CLH was calculated using the well stirred liver model according to the following equation:
(§6) [formula] where QH is the total liver blood flow, fu is unbound fraction of the drug, and CL′int is defined as follows: CL′int=CLint×(10^6 cells/g of liver weight)×(g liver weight/kg of body weight). In the first approximation, used in this study, fu=1.
(§7) Hepatic extraction ratio EH was calculated using the following equation:
(§8) [formula] Corresponding physiological parameters used in calculations for all species are shown below in Table 3.

human hepatocytes = test: as above; assay type: in vitro ADME; details: Human Hepatocytes; for EH (hepatic extraction ratio): well stirred liver model, fu=1
From the text: as §1, §2, §3, §4, §5, §6, §7, §8

[2] = Hepatocyte intrinsic clearance assay (metabolic stability), rat hepatocytes; assay type: in vitro ADME; details: rat, cryopreserved hepatocytes, Rat Hepatocytes, 1 μM test compound
From the text: as §1, §2, §3, §4, §5, §6, §7, §8

rat hepatocytes = test: as above; assay type: in vitro ADME; details: Rat Hepatocytes; well stirred liver model, fu=1
From the text: as §1, §2, §3, §4, §5, §6, §7, §8

[3] = In vivo pharmacokinetic studies in rats; set-up: species or system SD rats; details: for Tmax: read-out: Tmax
Experimental: This example describes pharmacokinetic (PK) studies of ARI-164, ARI-165, ARI-186, ARI-224, and ARI-226 in mice and rats. In the present studies, the test compounds were given to groups of mice and/or rats (N=3 in each group), intravenously (IV) at 2 mg/kg or orally (PO) at 10, 30, or 40 mg/kg. ARI-186, ARI-224 and ARI-226 were given orally to rats QD for 5 days at 10 mg/kg to assess whether decreased susceptibility to CYP1A1/1A2 metabolism would lead to increased accumulation. IV doses were formulated in DMSO, while PO doses were formulated in a 50/50 mixture of PEG400 and Tween 80 (single dose mouse and rat studies for ARI-164, ARI-165, ARI-186, ARI-224, ARI-226) or PEG400/Kolliphor HS15/Oleic Acid 45/45/10 (ARI-164 repeat dose rat study). Blood samples were collected at pre-dose and over a period of 24 hours post-dose. Plasma concentrations of the test compounds were determined by HPLC.

[4] = SD, rat, plasma, iv, 2 mg/kg, rats, single 2 mg/kg IV dose, Mean of 3 animals
[5] = SD, rat, plasma, iv, 2 mg/kg, rats, single 2 mg/kg IV dose, individual animal
[6] = Sprague-Dawley (SD), rat, plasma, iv, 2 mg/kg, rats, single 2 mg/kg IV dose, Mean of 3 animals
[7] = Sprague-Dawley (SD), rat, plasma, po, 10 mg/kg, rats, single 10 mg/kg PO dose, Mean of 3 animals
[8] = Sprague-Dawley (SD), rat, plasma, po, 10 mg/kg, rats, single 10 mg/kg PO dose, individual animal
[9] = rats, single 2 mg/kg IV dose, individual animal, 2 mg/kg
[10] = rats, single 10 mg/kg PO dose, individual animal, 10 mg/kg

Compound: CC[C@H](N)c1csc(C(=O)c2c[nH]c3ccc(F)cc23)n1 [ARI-218]
- half-life at 1 μM [1]: 1.3 h
- hepatocyte CLint at 1 μM [1]: 9.16 µL/min/1e6 cells
- EH (hepatic extraction ratio) (human hepatocytes): 22.2%
- half-life at 1 μM [2]: 1 h
- hepatocyte CLint at 1 μM [2]: 11.1 µL/min/1e6 cells
- EH (hepatic extraction ratio) (rat hepatocytes): 42.5%

Compound: N[C@@H](c1csc(C(=O)c2c[nH]c3ccccc23)n1)C(F)(F)F [ARI-229]
- half-life at 1 μM [1]: 2.3 h
- hepatocyte CLint at 1 μM [1]: 5.03 µL/min/1e6 cells
- EH (hepatic extraction ratio) (human hepatocytes): 11.4%
- half-life at 1 μM [2]: 1 h
- hepatocyte CLint at 1 μM [2]: 11.7 µL/min/1e6 cells
- EH (hepatic extraction ratio) (rat hepatocytes): 43.9%

Compound: CC[C@H](O)c1csc(C(=O)c2c[nH]c3cc(F)ccc23)n1 [ARI-164, (S)-(6-Fluoro-1H-indol-3-yl)(4-(1-hydroxypropyl)thiazol-2-yl)methanone]
- half-life at 1 μM [1]: 0.7 h
- hepatocyte CLint at 1 μM [1]: 15.7 µL/min/1e6 cells
- CLint (human hepatocytes; 1 μM test compound): 13.556 μL/min/10^6 cells and 15.446 μL/min/10^6 cells and 13.712 μL/min/10^6 cells and 15.383 μL/min/10^6 cells
- EH (hepatic extraction ratio) (human hepatocytes): 25.3% and 24.6% and 25.2% and 19.9%
- EH (hepatic extraction ratio) (rat hepatocytes): 33.3% and 34.6% and 28.8% and 35.0% and 48.8%
- AUC(0-inf) [3, 4]: 21500 ng·h/mL
- clearance [3, 4]: 1.55 mL/min/kg
- AUC(0-t) ([3]; SD, rat, plasma, iv, 2 mg/kg, rats, single 2 mg/kg IV dose, Mean of 3 animals, read-out: AUClast): 21400 ng·h/mL
- AUC(0-inf) [3, 5]: 20500 ng·h/mL
- clearance [3, 5]: 1.63 mL/min/kg
- half-life [3, 5]: 3.91 h
- AUC(0-t) ([3]; SD, rat, plasma, iv, 2 mg/kg, rats, single 2 mg/kg IV dose, individual animal, read-out: AUClast): 20300 ng·h/mL
- Cmax ([3]; SD, rat, plasma, iv, 2 mg/kg, rats, single 2 mg/kg IV dose, individual animal, read-out: Cmax): 42200 ng/mL
- Tmax [3, 5]: 0.083 h
- MRT inf [3, 6]: 1.69 h
- MRT last [3, 6]: 1.63 h
- half-life [3, 6]: 2.85 h
- Cmax ([3]; Sprague-Dawley (SD), rat, plasma, iv, 2 mg/kg, rats, single 2 mg/kg IV dose, Mean of 3 animals, read-out: Cmax): 40700 ng/mL
- Tmax [3, 6]: 0.083 h
- Vd ([3]; Sprague-Dawley (SD), rat, plasma, iv, 2 mg/kg, rats, single 2 mg/kg IV dose, Mean of 3 animals, read-out: Vss): 0.155 L/kg
- AUC(0-inf) [3, 7]: 2090 ng·h/mL
- MRT inf [3, 7]: 2.87 h
- MRT last [3, 7]: 2.85 h
- half-life [3, 7]: 1.37 h
- AUC(0-t) ([3]; Sprague-Dawley (SD), rat, plasma, po, 10 mg/kg, rats, single 10 mg/kg PO dose, Mean of 3 animals, read-out: AUClast): 2090 ng·h/mL
- Cmax ([3]; Sprague-Dawley (SD), rat, plasma, po, 10 mg/kg, rats, single 10 mg/kg PO dose, Mean of 3 animals, read-out: Cmax): 511 ng/mL
- Tmax [3, 7]: 1.67 h
- AUC(0-inf) [3, 8]: 2110 ng·h/mL
- MRT inf [3, 8]: 2.65 h
- MRT last [3, 8]: 2.64 h
- AUC(0-t) ([3]; Sprague-Dawley (SD), rat, plasma, po, 10 mg/kg, rats, single 10 mg/kg PO dose, individual animal, read-out: AUClast): 2110 ng·h/mL
- Cmax ([3]; Sprague-Dawley (SD), rat, plasma, po, 10 mg/kg, rats, single 10 mg/kg PO dose, individual animal, read-out: Cmax): 532 ng/mL
- Tmax [3, 8]: 2 h
- bioavailability ([3]; Sprague-Dawley (SD), rat, plasma, rats, 10 mg/kg PO vs 2 mg/kg IV, read-out: F (Bioavailability)): 1.94%
- Cmax/Dose ([3]; male rats, repeat 30 mg/kg oral dose, Day 1, Mean): 16.6 kg·ng/mL/mg
- Tlast^a ([3]; male rats, repeat 30 mg/kg oral dose, Day 1, Mean row): 8 h
- Cmax/Dose ([3]; male rats, repeat 30 mg/kg oral dose, Day 7, Mean): 0.245 kg·ng/mL/mg
- Tlast^a ([3]; male rats, repeat 30 mg/kg oral dose, Day 7, range printed in SD row): (1-4) hr
- Cmax at 1 day ([3]; male, Sprague-Dawley (SD), rat, plasma, po, 30 mg/kg, male rats, repeat 30 mg/kg oral dose, Day 1, Mean): 499 ng/mL
- Tmax at 1 day ([3]; male, Sprague-Dawley (SD), rat, plasma, po, 30 mg/kg, male rats, repeat 30 mg/kg oral dose, Day 1, Mean row, read-out: Tmax^a): 1 h
- AUC(0-t) ([3]; male, Sprague-Dawley (SD), rat, plasma, po, 30 mg/kg, male rats, repeat 30 mg/kg oral dose, Day 1, Mean, read-out: AUCTlast): 1430 ng·h/mL
- Cmax at 7 day ([3]; male, Sprague-Dawley (SD), rat, plasma, po, 30 mg/kg, male rats, repeat 30 mg/kg oral dose, Day 7, Mean): 2.93 ng/mL
- Tmax at 7 day ([3]; male, Sprague-Dawley (SD), rat, plasma, po, 30 mg/kg, male rats, repeat 30 mg/kg oral dose, Day 7, Mean row): 1 h
- decrease in exposure after repeat oral dosing ([3]; rats, 30 mg/kg QD): greater than 90%
- AUCinf [3, 9]: 23000 ng·h/mL and 21000 ng·h/mL
- AUClast [3, 9]: 23000 ng·h/mL and 21000 ng·h/mL
- Cl [3, 9]: 1.45 mL/min/kg and 1.58 mL/min/kg
- Cmax [3, 9]: 35400 ng/mL and 44500 ng/mL
- MRTinf [3, 9]: 1.53 h and 2.5 h and 1.04 h
- MRTlast [3, 9]: 1.38 h and 2.49 h and 1.03 h
- T1/2 [3, 9]: 2.39 h and 2.24 h
- Vss [3, 9]: 0.149 L/kg and 0.218 L/kg and 0.0986 L/kg
- AUCinf [3, 10]: 2660 ng·h/mL and 1500 ng·h/mL
- AUClast [3, 10]: 2650 ng·h/mL and 1500 ng·h/mL
- Cmax [3, 10]: 646 ng/mL and 354 ng/mL
- MRTinf [3, 10]: 3.05 h and 2.92 h
- MRTlast [3, 10]: 3.02 h and 2.88 h
- T1/2 [3, 10]: 0.56 h and 0.746 h and 2.82 h

Compound: CC[C@@H](N)c1csc(C(=O)c2c[nH]c3ccc(F)cc23)n1 [ARI-219]
- half-life at 1 μM [1]: 5.3 h
- hepatocyte CLint at 1 μM [1]: 2.17 µL/min/1e6 cells
- EH (hepatic extraction ratio) (human hepatocytes): 11.5%
- half-life at 1 μM [2]: 0.5 h
- hepatocyte CLint at 1 μM [2]: 21.4 µL/min/1e6 cells
- EH (hepatic extraction ratio) (rat hepatocytes): 58.9%
